The target in assay [1] is T1, recombinant human AMPK complex 1 (containing α1β1γ1) (Homo sapiens, UniProt Q13131+Q9Y478).
T1 construct: made in house; host or cells: Spodoptera frugiperda Sf21 cells (baculovirus, triple infection)
Kind of assay: In vitro AMPK activation assay (AMPKSAMSF), AMPK complex 1. The format is biochemical. The following applies: for Emax: 10-point titration data expressed as % maximum AMP activation; for EC50: human AMPK complex 1, inflection point reflecting 50% of the maximum activation. As to the method: (§1) AMPKSAMSF (In Vitro AMPK Activation Assay)
(§2) The recombinant human AMPK complex 1 (containing α1β1γ1) and complex 7 (containing α2β1γ1) were obtained from baculovirus expression system. Recombinant viruses were generated by cotransfection of AMPK/pBacPak9 clones with Baculogold baculovirus DNA (Pharmingen) in spodoptera frugiperda 21 cells according to the manufacturer's instructions. Each round of virus amplification was performed for 5 days in Grace's medium containing 10% serum. Virus that had been subjected to three rounds of amplification was used for all protein production procedures. To express the AMPK complex, sf21 cells were adapted to serum free medium (SF900 II, Invitrogen) by sequential dilution from serum containing stocks into SF900II medium and maintained in shaker flasks at 90 rpm at 27° C. The recombinant AMPK enzyme complex was produced by triple infection, one recombinant virus for each of the subunits, in sf21 cells under serum free conditions. Cells were infected in log phase, 1×10^6 cells/ml, at a multiplicity of infection of ˜5. Cells were harvested by centrifugation at 10,000×g for 15 minutes after 72 hours of infection with viruses. The insect cell pellet from 2 liters of culture was resuspended in 50 ml lysis buffer (20 mM Tris-HCl, 50 mM NaCl, 50 mM NaF, 30 mM Na PPi, 0.25 M sucrose, 10 mM ZnCl2, 2 mM DTT, 0.4 mg/ml digitonin) and subjected to two cycles of freeze-thaw lysis in a dry-ice ethanol bath. Insoluble material was removed by centrifugation at 10,000×g and the supernatant was fractionated with use of polyethylene glycol (PEG). The protein fraction precipitating between 2.5 and 6% PEG was used for further purification using a Blue-Sepharose step (Zhou et al, J. Clin. Invest. 108, 1167-1174, 2001).
(§3) The in vitro AMPK activation assay is performed in a volume of 30 μl in a 384-well plate. Enzyme reactions were assembled in the microtiter plate by adding 15 μl of 2× enzyme in assay buffer (20 mM HEPES, pH 7.3, 5 mM MgCl2, 3 mM DTT, 0.01% Brij 35 and CamK Kinase, to activate AMPK) to wells which contained either DMSO or compound. The reaction was initiated with the addition of 15 μ12× substrate mixture containing 200 μM ATP, and 3.0 μM fluorescently labeled SAMS (5-FAM-HMRSAMSGLHLVKRR—COOH) in assay buffer. After 45-minute incubation at 25° C., the reaction was stopped by the addition of 70 μl stop buffer (100 mM HEPES, pH 7.3, 40 mM EDTA, 0.015% Brij 35). Phosphorylated 5-FAM SAMS product is assessed using a Caliper EZ Reader LabChip microfluidics reader. Product conversion is determined by calculating the peak heights of the substrate and product and reporting the product/(product+substrate) peak ratio. The 10-point titration data were expressed as % maximum AMP activation. The results were plotted using 4 parameter fit and the inflection point reflecting 50% of the maximum activation was reported as the EC50.
(§4) The compounds of present invention, including the compounds of Examples 1-142, were tested in the in vitro AMPK activation assay using recombinant human AMPK complex 1 (containing α1β1γ1) or AMPK complex 7 (containing α2β1γ1) and found to have increased activation of human AMPK complex 1 or complex 7 at concentrations of less than 50 μM.

Assay [2] deals with T2, recombinant human AMPK complex 7 (containing α2β1γ1) (Homo sapiens, UniProt P54646+Q9Y478).
T2 construct: made in house; host or cells: Spodoptera frugiperda Sf21 cells (baculovirus, triple infection)
Briefly: In vitro AMPK activation assay (AMPKSAMSF), AMPK complex 7. The format is biochemical. The following applies: for Emax: 10-point titration data expressed as % maximum AMP activation; for EC50: human AMPK complex 7, inflection point reflecting 50% of the maximum activation. How it is done: as §1, §2, §3, §4

The next assay has as its system ob/ob and db/db mice. The following applies: following 8 weeks of administration; cited from earlier work.

One may read the Emax as the maximal effect, on the per cent scale that the assay sets. By EC50 is commonly meant the concentration that produces a half-maximal response.

T2 sequence (P54646 whole entry): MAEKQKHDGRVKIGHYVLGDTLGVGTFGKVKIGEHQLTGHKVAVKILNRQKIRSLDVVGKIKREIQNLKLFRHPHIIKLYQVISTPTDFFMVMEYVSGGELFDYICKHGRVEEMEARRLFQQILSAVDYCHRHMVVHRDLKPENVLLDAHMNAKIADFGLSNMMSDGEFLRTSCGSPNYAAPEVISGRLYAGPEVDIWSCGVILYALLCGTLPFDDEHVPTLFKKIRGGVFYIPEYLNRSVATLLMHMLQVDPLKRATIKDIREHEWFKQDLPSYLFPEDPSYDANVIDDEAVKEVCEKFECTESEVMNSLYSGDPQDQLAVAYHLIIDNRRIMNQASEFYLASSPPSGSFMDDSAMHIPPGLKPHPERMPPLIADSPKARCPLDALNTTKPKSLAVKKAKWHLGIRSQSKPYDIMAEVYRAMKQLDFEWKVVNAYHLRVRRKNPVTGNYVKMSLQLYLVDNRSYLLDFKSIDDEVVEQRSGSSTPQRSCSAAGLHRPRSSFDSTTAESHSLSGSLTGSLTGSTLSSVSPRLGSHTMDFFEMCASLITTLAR
T2 sequence (Q9Y478 whole entry): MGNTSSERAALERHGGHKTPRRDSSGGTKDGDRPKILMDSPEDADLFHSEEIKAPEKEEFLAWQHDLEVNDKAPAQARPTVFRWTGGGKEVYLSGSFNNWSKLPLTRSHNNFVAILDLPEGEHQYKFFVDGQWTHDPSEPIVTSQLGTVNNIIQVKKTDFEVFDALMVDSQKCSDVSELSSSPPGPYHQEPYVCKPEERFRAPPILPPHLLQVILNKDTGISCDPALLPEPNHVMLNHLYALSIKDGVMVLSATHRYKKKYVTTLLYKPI
T2 sequence (P54619 whole entry partner): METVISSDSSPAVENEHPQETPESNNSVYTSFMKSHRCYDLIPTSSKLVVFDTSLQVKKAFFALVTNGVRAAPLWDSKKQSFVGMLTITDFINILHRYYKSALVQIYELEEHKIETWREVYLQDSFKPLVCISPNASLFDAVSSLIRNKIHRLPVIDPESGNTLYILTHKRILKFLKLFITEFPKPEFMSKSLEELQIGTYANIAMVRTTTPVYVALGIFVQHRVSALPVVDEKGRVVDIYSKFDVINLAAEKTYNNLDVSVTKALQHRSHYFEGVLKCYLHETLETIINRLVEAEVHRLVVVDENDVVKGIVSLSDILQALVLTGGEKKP
T1 sequence (Q13131 whole entry): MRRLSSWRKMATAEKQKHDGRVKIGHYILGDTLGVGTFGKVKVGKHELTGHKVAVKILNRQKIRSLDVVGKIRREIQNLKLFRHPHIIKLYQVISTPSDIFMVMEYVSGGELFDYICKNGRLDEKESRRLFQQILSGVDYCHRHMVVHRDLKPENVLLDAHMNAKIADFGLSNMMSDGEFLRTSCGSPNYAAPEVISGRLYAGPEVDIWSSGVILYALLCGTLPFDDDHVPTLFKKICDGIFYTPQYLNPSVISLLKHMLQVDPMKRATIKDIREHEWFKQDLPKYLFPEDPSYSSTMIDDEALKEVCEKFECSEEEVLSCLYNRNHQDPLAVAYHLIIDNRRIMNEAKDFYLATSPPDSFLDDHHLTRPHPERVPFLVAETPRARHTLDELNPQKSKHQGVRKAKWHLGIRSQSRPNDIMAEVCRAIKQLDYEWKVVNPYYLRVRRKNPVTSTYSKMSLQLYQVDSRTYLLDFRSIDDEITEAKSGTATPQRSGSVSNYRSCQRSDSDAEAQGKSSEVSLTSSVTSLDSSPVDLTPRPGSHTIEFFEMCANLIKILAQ
T1 sequence (Q9Y478 whole entry): as the sequence (Q9Y478 whole entry) above
T1 sequence (P54619 whole entry partner): as the sequence (P54619 whole entry partner) above

`CS(=O)(=O)c1ccc(-c2ccc(-c3nc4cc(CCCC(=O)O)[nH]c4cc3Cl)cc2)cc1` [Example 22]: in assay [1], the Emax was 416% and the EC50 was determined as 8 nM.

Regarding `Cc1ccc(Oc2cc3nc(-c4ccc(-c5ccccc5)cc4)c(Cl)cc3[nH]2)cc1C(=O)O` [Example 80], in assay [2], the Emax was determined as 230% and the EC50 was < 3 nM. In the case of `Cn1ccc2cc(-c3nc4cc(O[C@@H]5CO[C@H]6[C@@H]5OC[C@H]6O)[nH]c4cc3Cl)ccc21` [Example 77], in assay [2], the Emax stood at 472% and the EC50 is < 3 nM. For `Cc1c(O[C@@H]2CC[C@H]3[C@@H]2OC[C@H]3O)[nH]c2cc(Cl)c(-c3ccc(-c4ccccc4)cc3)nc12` [Example 138], in assay [2], the Emax came out at 486% and the EC50 turned out to be 56 nM. In the same order, the values of `Cc1ccc(Oc2cc3nc(-c4ccc(-c5ccccc5)cc4)c(F)cc3[nH]2)cc1C(=O)O` [Example 82] are 239% and 6 nM. As for `Cc1ccc(Cc2cc3cc(-c4ccc(C5(CO)CC5)cc4)c(Cl)cc3[nH]2)cc1C(=O)O` [Example 6, 5-((6-chloro-5-(4-(1-(hydroxymethyl)cyclopropyl)phenyl)-1H-indol-2-yl)methyl)-2-methylbenzoic acid], in assay [1], the Emax is 601% and the EC50 amounted to 10 nM. As for `OC[C@H]1OC[C@@H](Oc2cc3nc(-c4ccc(-c5ccccc5)cc4)c(Cl)cc3[nH]2)[C@@H]1O` [Example 123], in assay [2], the Emax is 295% and the EC50 stood at 12 nM. In the case of `O[C@@H]1CO[C@H]2[C@@H]1OC[C@H]2Oc1cc2nc(-c3ccc(-c4ccc(-n5cncn5)cc4)cc3)c(Cl)cc2[nH]1` [Example 110], in assay [2], the Emax was found to be 412% and the EC50 is < 1 nM.

Turning to `CS(=O)(=O)c1ccc(-c2ccc(-c3nc4cc(CCCCC(=O)O)[nH]c4cc3Cl)cc2)cc1` [Example 23], in assay [1], the Emax amounted to 575% and the EC50 turned out to be 1 nM. The like results for `CS(=O)(=O)c1ccc(-c2ccc(-c3cc4cc(CCCC(=O)O)[nH]c4cc3Cl)cc2)cc1` [Example 15] were, in that order, 370% and 24 nM. On to `NC(=O)c1ncn([C@@H]2O[C@H](CO)[C@@H](O)[C@H]2O)c1N` [AICAR], for which the blood glucose reduction with ob/ob and db/db mice was 35%.

For the compound `Cc1ccc(Oc2cc3nc(-c4ccc(C5(CO)CC5)cc4)c(Cl)cc3[nH]2)cc1P(=O)(O)O` [Example 114, (5-((6-chloro-5-(4-(1-(hydroxymethyl)cyclopropyl)phenyl)-1H-pyrrolo[3,2-b]pyridin-2-yl)oxy)-2-methylphenyl)phosphonic acid], in assay [2], the Emax was 333% and the EC50 is < 3 nM. Turning to `Cc1ccc(Cc2cc3nc(-c4ccc(C5(CO)CC5)cc4)c(Cl)cc3[nH]2)cc1C(=O)O` [Example 18, 5-((6-chloro-5-(4-(1-(hydroxymethyl)cyclopropyl)phenyl)-1H-pyrrolo[3,2-b]pyridin-2-yl)methyl)-2-methylbenzoic acid], in assay [1], the Emax was 573% and the EC50 turned out to be 4 nM. In the case of `OC[C@H]1OC[C@@H](Oc2cc3nc(-c4ccc(C5(CO)CC5)cc4)c(Cl)cc3[nH]2)[C@@H]1O` [Example 124], in assay [2], the Emax came to 305% and the EC50 was determined as 15 nM. `CS(=O)(=O)c1ccc(-c2ccc(-c3nc4cc(CCCCO)[nH]c4cc3Cl)cc2)cc1` [Example 21]: in assay [1], the Emax turned out to be 590% and the EC50 came out at 2 nM. For `CCOc1ccc(-c2cc3cc(Cc4ccc(C)c(C(=O)O)c4)[nH]c3cc2Cl)c(F)c1` [Example 8, 5-((6-chloro-5-(4-ethoxy-2-fluorophenyl)-1H-indol-2-yl)methyl)-2-methylbenzoic acid], in assay [1], the Emax is 265% and the EC50 amounted to 493 nM. As for `OC[C@H]1OC[C@H](Oc2cc3nc(-c4ccc(C5(CO)CC5)cc4)c(Cl)cc3[nH]2)C[C@@H]1O` [Example 122], in assay [2], the Emax is 384% and the EC50 was 4 nM. Take `Cc1ccc(Cc2cc3cc(-c4ccc(-c5ccncc5)cc4)c(Cl)cc3[nH]2)cc1C(=O)O` [Example 30, 5-{[6-chloro-5-(4-pyridin-4-ylphenyl)-1H-indol-2-yl]methyl}-2-methylbenzoic acid]: in assay [1], the Emax stood at 583% and the EC50 turned out to be 15 nM. On to `Oc1ccccc1-c1ccc(-c2nc3cc(O[C@@H]4CO[C@H]5[C@@H]4OC[C@H]5O)[nH]c3cc2Cl)cc1` [Example 107, (3R,3aR,6R,6aR)-6-((6-chloro-5-(2′-hydroxy-[1,1′-biphenyl]-4-yl)-1H-pyrrolo[3,2-b]pyridin-2-yl)oxy)hexahydrofuro[3,2-b]furan-3-ol], for which, in assay [2], the Emax was found to be 492% and the EC50 was < 1 nM. `CS(=O)(=O)c1ccc(-c2ccc(-c3nc4cc(C[C@H]5CC[C@H](CO)CC5)[nH]c4cc3Cl)cc2)cc1` [Example 24, ((trans)-4-((6-chloro-5-(4′-(methylsulfonyl)-[1,1′-biphenyl]-4-yl)-1H-pyrrolo[3,2-b]pyridin-2-yl)methyl)cyclohexyl)methanol]: in assay [1], the Emax worked out at 256% and the EC50 stood at 14 nM.

As for `O=S1(=O)CCN(c2ccc(-c3nc4cc(O[C@@H]5CO[C@H]6[C@@H]5OC[C@H]6O)[nH]c4cc3Cl)cc2)CC1` [Example 105], in assay [2], the Emax was determined as 495% and the EC50 is 8 nM. In the same order, the values of `OCC1(c2ccc(-c3nc4cc(O[C@@H]5CO[C@H]6[C@@H]5OC[C@H]6O)[nH]c4cc3F)cc2)CC1` [Example 72] are 530% and < 3 nM. With `Cc1ccc(Cc2cc3cc(-c4ccc(N5CCCC5)cc4)c(Cl)cc3[nH]2)cc1C(=O)O` [Example 1, 5-((6-chloro-5-(4-(pyrrolidin-1-yl)phenyl)-1H-indol-2-yl)methyl)-2-methylbenzoic acid], in assay [1], the Emax was found to be 581% and the EC50 is 37 nM. Consider `OC[C@H]1OC[C@H](Oc2cc3nc(-c4ccc(-c5ccccc5)cc4)c(Cl)cc3[nH]2)C[C@@H]1O` [Example 121, (2R,3S,5R)-5-((5-([1,1′-biphenyl]-4-yl)-6-chloro-1H-pyrrolo[3,2-b]pyridin-2-yl)oxy)-2-(hydroxymethyl)tetrahydro-2H-pyran-3-ol], for which, in assay [2], the Emax came out at 213% and the EC50 amounted to 71 nM. On to `O[C@@H]1CO[C@H]2[C@@H]1OC[C@H]2Oc1cc2nc(-c3ccc4c(c3)OCO4)c(Cl)cc2[nH]1` [Example 76], for which, in assay [2], the Emax worked out at 446% and the EC50 is < 3 nM. With `O[C@@H]1CO[C@H]2[C@@H]1OC[C@H]2Oc1cc2nc(-c3ccc(-c4ccccc4)cc3)c(Cl)cc2[nH]1` [Example 69], in assay [2], the Emax was 354% and the EC50 worked out at 5 nM. `Cc1ccc(Cc2cc3cc(-c4ccc(-c5ccc(S(C)(=O)=O)cc5)cc4)c(Cl)cc3[nH]2)cc1C(=O)O` [Example 3]: in assay [1], the Emax amounted to 680% and the EC50 is 13 nM.

Source of the values: patent US9650375B2, “Indole derivatives useful as anti-diabetic agents” (Merck Sharp & Dohme Corp., priority 2013, dated 2017).
